# Test results from patent US7375083B2, “Pharmaceutical compositions for prevention of overdose or abuse” (Shire LLC, priority 2003, dated 2008).
# Legend:
# Anesthetized Dog = test: Cardiovascular effects after intravenous bolus injection in anesthetized dogs
# [1] = Bolus intravenous bioavailability in rats, LC/MS/MS; conditions: rat
# Sprague Dawley rats = test: Single-dose oral toxicity; assay type: in vivo; conditions: rat; for Observable signs: single oral dose
# Procedure: Three male and three female Sprague Dawley rats per group were given a single oral administration of L-lysine-d-amphetamine at 0.1, 1.0, 10, 60, 100 or 1000 mg/kg (Table 44).
# Animals found dead, or sacrificed moribund were necropsied and discarded. A total of one animal/sex/group was necropsied upon scheduled or unscheduled death.
smiles,measurement,setting,value
"CC(Cc1ccccc1)NC(=O)C(N)CCCCN [L-lysine-d-amphetamine, 2,6-diaminohexanoic acid-(1-methyl-2-phenylethyl)-amide]",DAP % Change from respective Time 0,"Anesthetized Dog; 0.5 mg/kg, TIME 0",0%
same,DAP - diastolic arterial pressure,"Anesthetized Dog; 0.5 mg/kg, TIME 0",51 mmHg
same,LVP % Change from respective Time 0,"Anesthetized Dog; 0.5 mg/kg, TIME 0",0%
same,LVP - left ventricular pressure,"Anesthetized Dog; 0.5 mg/kg, TIME 0",86 mmHg
same,MAP % Change from respective Time 0,"Anesthetized Dog; 0.5 mg/kg, TIME 0",0%
same,MAP - mean arterial pressure,"Anesthetized Dog; 0.5 mg/kg, TIME 0",64 mmHg
same,SAP % Change from respective Time 0,"Anesthetized Dog; 0.5 mg/kg, TIME 0",0%
same,SAP - systolic arterial pressure,"Anesthetized Dog; 0.5 mg/kg, TIME 0",84 mmHg
same,DAP % Change from respective Time 0,"Anesthetized Dog; 0.5 mg/kg, TIME 5",3%
same,DAP - diastolic arterial pressure,"Anesthetized Dog; 0.5 mg/kg, TIME 5",52 mmHg
same,LVP % Change from respective Time 0,"Anesthetized Dog; 0.5 mg/kg, TIME 5",2%
same,LVP - left ventricular pressure,"Anesthetized Dog; 0.5 mg/kg, TIME 5",87 mmHg
same,MAP % Change from respective Time 0,"Anesthetized Dog; 0.5 mg/kg, TIME 5",3%
same,MAP - mean arterial pressure,"Anesthetized Dog; 0.5 mg/kg, TIME 5",66 mmHg
same,SAP % Change from respective Time 0,"Anesthetized Dog; 0.5 mg/kg, TIME 5",4%
same,SAP - systolic arterial pressure,"Anesthetized Dog; 0.5 mg/kg, TIME 5",87 mmHg
same,DAP % Change from respective Time 0,"Anesthetized Dog; 0.5 mg/kg, TIME 15",1%
same,DAP - diastolic arterial pressure,"Anesthetized Dog; 0.5 mg/kg, TIME 15",51 mmHg
same,LVP % Change from respective Time 0,"Anesthetized Dog; 0.5 mg/kg, TIME 15",11%
same,LVP - left ventricular pressure,"Anesthetized Dog; 0.5 mg/kg, TIME 15",95 mmHg
same,MAP % Change from respective Time 0,"Anesthetized Dog; 0.5 mg/kg, TIME 15",5%
same,MAP - mean arterial pressure,"Anesthetized Dog; 0.5 mg/kg, TIME 15",67 mmHg
same,SAP % Change from respective Time 0,"Anesthetized Dog; 0.5 mg/kg, TIME 15",11%
same,SAP - systolic arterial pressure,"Anesthetized Dog; 0.5 mg/kg, TIME 15",93 mmHg
same,DAP % Change from respective Time 0,"Anesthetized Dog; 0.5 mg/kg, TIME 25",8%
same,DAP - diastolic arterial pressure,"Anesthetized Dog; 0.5 mg/kg, TIME 25",55 mmHg
same,LVP % Change from respective Time 0,"Anesthetized Dog; 0.5 mg/kg, TIME 25",22%
same,LVP - left ventricular pressure,"Anesthetized Dog; 0.5 mg/kg, TIME 25",105 mmHg
same,MAP % Change from respective Time 0,"Anesthetized Dog; 0.5 mg/kg, TIME 25",15%
same,MAP - mean arterial pressure,"Anesthetized Dog; 0.5 mg/kg, TIME 25",73 mmHg
same,SAP % Change from respective Time 0,"Anesthetized Dog; 0.5 mg/kg, TIME 25",25%
same,DAP % Change from respective Time 0,"Anesthetized Dog; 0.5 mg/kg, TIME 30",14%
same,DAP - diastolic arterial pressure,"Anesthetized Dog; 0.5 mg/kg, TIME 30",58 mmHg
same,LVP % Change from respective Time 0,"Anesthetized Dog; 0.5 mg/kg, TIME 30",26%
same,MAP % Change from respective Time 0,"Anesthetized Dog; 0.5 mg/kg, TIME 30",21%
same,MAP - mean arterial pressure,"Anesthetized Dog; 0.5 mg/kg, TIME 30",77 mmHg
same,SAP % Change from respective Time 0,"Anesthetized Dog; 0.5 mg/kg, TIME 30",28%
same,DAP % Change from respective Time 0,"Anesthetized Dog; 1.0 mg/kg, TIME 0",0%
same,DAP - diastolic arterial pressure,"Anesthetized Dog; 1.0 mg/kg, TIME 0",55 mmHg
same,LVP % Change from respective Time 0,"Anesthetized Dog; 1.0 mg/kg, TIME 0",0%
same,MAP % Change from respective Time 0,"Anesthetized Dog; 1.0 mg/kg, TIME 0",0%
same,MAP - mean arterial pressure,"Anesthetized Dog; 1.0 mg/kg, TIME 0",74 mmHg
same,SAP % Change from respective Time 0,"Anesthetized Dog; 1.0 mg/kg, TIME 0",0%
same,SAP - systolic arterial pressure,"Anesthetized Dog; 1.0 mg/kg, TIME 0",105 mmHg
same,DAP % Change from respective Time 0,"Anesthetized Dog; 1.0 mg/kg, TIME 5",15%
same,DAP - diastolic arterial pressure,"Anesthetized Dog; 1.0 mg/kg, TIME 5",63 mmHg
same,LVP % Change from respective Time 0,"Anesthetized Dog; 1.0 mg/kg, TIME 5",11%
same,LVP - left ventricular pressure,"Anesthetized Dog; 1.0 mg/kg, TIME 5",120 mmHg
same,MAP % Change from respective Time 0,"Anesthetized Dog; 1.0 mg/kg, TIME 5",15%
same,MAP - mean arterial pressure,"Anesthetized Dog; 1.0 mg/kg, TIME 5",85 mmHg
same,SAP % Change from respective Time 0,"Anesthetized Dog; 1.0 mg/kg, TIME 5",15%
same,DAP % Change from respective Time 0,"Anesthetized Dog; 1.0 mg/kg, TIME 15",33%
same,DAP - diastolic arterial pressure,"Anesthetized Dog; 1.0 mg/kg, TIME 15",73 mmHg
same,LVP % Change from respective Time 0,"Anesthetized Dog; 1.0 mg/kg, TIME 15",29%
same,LVP - left ventricular pressure,"Anesthetized Dog; 1.0 mg/kg, TIME 15",140 mmHg
same,MAP % Change from respective Time 0,"Anesthetized Dog; 1.0 mg/kg, TIME 15",35%
same,MAP - mean arterial pressure,"Anesthetized Dog; 1.0 mg/kg, TIME 15",100 mmHg
same,SAP % Change from respective Time 0,"Anesthetized Dog; 1.0 mg/kg, TIME 15",35%
same,DAP % Change from respective Time 0,"Anesthetized Dog; 1.0 mg/kg, TIME 25",75%
same,DAP - diastolic arterial pressure,"Anesthetized Dog; 1.0 mg/kg, TIME 25",97 mmHg
same,LVP % Change from respective Time 0,"Anesthetized Dog; 1.0 mg/kg, TIME 25",50%
same,MAP % Change from respective Time 0,"Anesthetized Dog; 1.0 mg/kg, TIME 25",68%
same,SAP % Change from respective Time 0,"Anesthetized Dog; 1.0 mg/kg, TIME 25",55%
same,DAP % Change from respective Time 0,"Anesthetized Dog; 1.0 mg/kg, TIME 30",32%
same,DAP - diastolic arterial pressure,"Anesthetized Dog; 1.0 mg/kg, TIME 30",73 mmHg
same,LVP % Change from respective Time 0,"Anesthetized Dog; 1.0 mg/kg, TIME 30",33%
same,MAP % Change from respective Time 0,"Anesthetized Dog; 1.0 mg/kg, TIME 30",32%
same,MAP - mean arterial pressure,"Anesthetized Dog; 1.0 mg/kg, TIME 30",98 mmHg
same,SAP % Change from respective Time 0,"Anesthetized Dog; 1.0 mg/kg, TIME 30",28%
same,DAP % Change from respective Time 0,"Anesthetized Dog; 5.0 mg/kg, TIME 0",0%
same,DAP - diastolic arterial pressure,"Anesthetized Dog; 5.0 mg/kg, TIME 0",71 mmHg
same,LVP % Change from respective Time 0,"Anesthetized Dog; 5.0 mg/kg, TIME 0",0%
same,MAP % Change from respective Time 0,"Anesthetized Dog; 5.0 mg/kg, TIME 0",0%
same,MAP - mean arterial pressure,"Anesthetized Dog; 5.0 mg/kg, TIME 0",95 mmHg
same,SAP % Change from respective Time 0,"Anesthetized Dog; 5.0 mg/kg, TIME 0",0%
same,SAP - systolic arterial pressure,"Anesthetized Dog; 5.0 mg/kg, TIME 0",132 mmHg
same,DAP % Change from respective Time 0,"Anesthetized Dog; 5.0 mg/kg, TIME 5",0%
same,DAP - diastolic arterial pressure,"Anesthetized Dog; 5.0 mg/kg, TIME 5",71 mmHg
same,LVP % Change from respective Time 0,"Anesthetized Dog; 5.0 mg/kg, TIME 5",5%
same,MAP % Change from respective Time 0,"Anesthetized Dog; 5.0 mg/kg, TIME 5",4%
same,MAP - mean arterial pressure,"Anesthetized Dog; 5.0 mg/kg, TIME 5",99 mmHg
same,SAP % Change from respective Time 0,"Anesthetized Dog; 5.0 mg/kg, TIME 5",7%
same,DAP % Change from respective Time 0,"Anesthetized Dog; 5.0 mg/kg, TIME 15",39%
same,DAP - diastolic arterial pressure,"Anesthetized Dog; 5.0 mg/kg, TIME 15",98 mmHg
same,LVP % Change from respective Time 0,"Anesthetized Dog; 5.0 mg/kg, TIME 15",28%
same,MAP % Change from respective Time 0,"Anesthetized Dog; 5.0 mg/kg, TIME 15",37%
same,MAP - mean arterial pressure,"Anesthetized Dog; 5.0 mg/kg, TIME 15",130 mmHg
same,SAP % Change from respective Time 0,"Anesthetized Dog; 5.0 mg/kg, TIME 15",33%
same,DAP % Change from respective Time 0,"Anesthetized Dog; 5.0 mg/kg, TIME 25",−3%
same,DAP - diastolic arterial pressure,"Anesthetized Dog; 5.0 mg/kg, TIME 25",69 mmHg
same,LVP % Change from respective Time 0,"Anesthetized Dog; 5.0 mg/kg, TIME 25",11%
same,LVP - left ventricular pressure,"Anesthetized Dog; 5.0 mg/kg, TIME 25",160 mmHg
same,MAP % Change from respective Time 0,"Anesthetized Dog; 5.0 mg/kg, TIME 25",1%
same,MAP - mean arterial pressure,"Anesthetized Dog; 5.0 mg/kg, TIME 25",96 mmHg
same,SAP % Change from respective Time 0,"Anesthetized Dog; 5.0 mg/kg, TIME 25",−5%
same,DAP % Change from respective Time 0,"Anesthetized Dog; 5.0 mg/kg, TIME 30",−1%
same,DAP - diastolic arterial pressure,"Anesthetized Dog; 5.0 mg/kg, TIME 30",70 mmHg
same,LVP % Change from respective Time 0,"Anesthetized Dog; 5.0 mg/kg, TIME 30",13%
same,MAP % Change from respective Time 0,"Anesthetized Dog; 5.0 mg/kg, TIME 30",4%
same,MAP - mean arterial pressure,"Anesthetized Dog; 5.0 mg/kg, TIME 30",99 mmHg
same,SAP % Change from respective Time 0,"Anesthetized Dog; 5.0 mg/kg, TIME 30",0%
same,SAP - systolic arterial pressure,"Anesthetized Dog; 5.0 mg/kg, TIME 30",132 mmHg
same,Effect on mean blood pressure after the first (lowest) dose,"Anesthetized Dog; dog, IV bolus, 0.202 mg/kg d-amphetamine, equimolar to 0.5 mg/kg L-lysine-d-amphetamine",very little change in mean BP
same,Increase of mean blood pressure,"Anesthetized Dog; dog, IV bolus, approximately 30 minutes after injection",20-50%
same,Tmax,"[1]; male, Sprague-Dawley, plasma, iv, […]",4.98 min
same,Cmax of d-amphetamine relative to d-amphetamine,[1]; bolus intravenous,about one-fourth
same,Deaths,"Sprague Dawley rats; single oral 1000 mg/kg, 7 days",only one death occurred out of a group of six animals
same,Observable signs,Sprague Dawley rats; Groups 1-3 (doses 0.1 to 1000 mg/kg in six groups),no observable signs
same,Observable signs,Sprague Dawley rats; Groups 4-6 (doses 0.1 to 1000 mg/kg in six groups),increased motor activity within two hours post-dose
